{
  "source": "paper PMC4561207",
  "about": "(Child's nervous system : ChNS : official journal of the …, 2015)",
  "key": {"[1]": {"assay": "Phase I dose escalation", "assay_type": "in vivo"}, "[2]": {"system": "primary CNS tumor", "assay": "MR diffusion and permeability perfusion imaging of tumor", "assay_type": "in vivo, human"}},
  "data": [
    {"smiles": "COc1cc2c(Oc3ccc4[nH]c(C)cc4c3F)ncnc2cc1OCCCN1CCCC1", "note": "[cediranib, Cediranib]", "values": [
      {"measurement": "MTD", "setting": "[1]; Stratum II (patients receiving EIACD), maximum dose tested 20mg/m^2/d", "value": "not achieved"},
      {"measurement": "DLTs identified", "setting": "[1]; human, in vivo", "value": 8},
      {"measurement": "change in two dimensional mean permeability values", "setting": "[2]; baseline to course 1 day 7–14, p=0.0469", "value": "suggested a decrease from baseline"},
      {"measurement": "change in 2D permeability and 3D permeability values", "setting": "[2]; baseline to end of course 2, p=0.0078 each", "value": "suggested a decrease from baseline"}
    ]}
  ]
}
